What was measured:
[1] = tested on: cediranib-resistant Caki-2 cell line; experiment: Cell viability, cediranib-resistant Caki-2; format: cell-based; conditions: for IC50: Homo sapiens, CAKI-2
Protocol: In an embodiment, the antiproliferative activity of compounds MC421, MC409, MC408, MC350, MC416, MC410, MC411, MC415 and MC413 was further determined against drug-resistant renal carcinoma cell lines.
(§1) In an embodiment, cell viability assays were performed. MCF-7, Hs578T and MCF-10A cells were plated in triplicate in 96-multiwell culture plates, at 3000 cells per mL, or 5000 cells per mL for MDA-MB-468 (100 μL/well). The cells were then allowed to adhere in complete medium, over a period of 18-20 hours. Cells were subsequently treated with 7 different concentrations (from 0.1 to 40 μM or 5 to 60 μM) of compounds or control in fresh medium. HL-60, KG-1 and Jurkat cell lines were plated in 96-multiwell culture plates at 50.000 cells/100 μL per well and treated with different concentrations (from 0.001 to 2 μM) of the compounds described (or control). Cells were plated, in triplicate, at an initial density of 2000 cells/well for GAMG, 4000 cells/well for GL18 and 6000 cells/well for U87MG, in 96-well plates, and allowed to adhere for 18-20 hours. Cells were then treated with different concentrations of the compounds (0.005 to 100 μM) or with control. A498 and 786-O cells were plated at 2000 cells per mL, Caki-2 cells were plated at 3000 cells per mL and HK2 cells were plated at 2000 cells per mL in triplicate, in 96-multiwell culture plates (100 μL/well), and allowed to adhere over a period of 18-20 hours in complete medium. The cells were then treated with 7 different concentrations (from 0.1 to 40 μM or 5 to 60 μM) of compounds or control in fresh medium. After 72 h of incubation, the MTS (Promega) reduction assay was performed according to manufacturer's instructions to indirectly assess the percentage of viable cells through metabolic cell viability. After 1-2 hours of incubation with MTS in a humidified atmosphere at 37° C. and 5% CO2, absorbance was measured at 490 nm. For RCC cell lines, sulforhodamine B assay was used according to manufacturer's instructions. The data was log-transformed and the concentration of each compound that decreased the number of viable cells to 50% (IC50) relative to control was calculated using the GraphPad Prism 6 software.

[2] = tested on: renal carcinoma cell line A498; experiment: Cell viability (sulforhodamine B), A498; format: cell-based; conditions: Homo sapiens, Table 5
Protocol: In an embodiment, the antiproliferative activity of the compounds was further determined against renal carcinoma cell lines and non-neoplastic kidney cell line.
In an embodiment, three human breast cancer cell lines Hs578T, MDA-MB-468 and MCF-7, and a normal breast cell line MCF-10A, were obtained from ATCC (American Type Culture Collection). The cancer cell lines were cultured in Dulbecco's modified Eagle medium, 4.5 g/l glucose (DMEM, Gibco) supplemented with 10% heating inactivated Fetal Bovine Serum (FBS, Gibco) and 1% antibiotic solution (Penicillin-Streptomycin, Gibco). The normal cell line was cultured in Dulbecco's Modified Eagle Medium: Nutrient Mixture F-12 (DMEM/F12, Gibco) supplemented with 5% heating inactivated FBS (Gibco), 1% antibiotic solution (Penicillin-Streptomycin, Gibco), 1% steroid hormone (Hydrocortisone, Sigma-Aldrich), 0.1% peptide hormone (Insulin, Sigma-Aldrich) and 0.01% protein complex (Cholera Toxin, Gibco). Two distinct human acute myeloid leukemia (AML) cell lines, HL-60 (FAB M2) and KG-1 (erythroleukemia-FAB M6), and one human lymphoblastic leukemia (ALL) cell line, Jurkat (T cell type), were also used. These three cell lines were obtained from German Collection of Microorganisms and Cell cultures (DMSZ®, Deutsche Sammlung von Mikroorganismen and Zellkulturen in German). Cells were cultured in RPMI 1640 medium (Biochrom®-Merck Millipore) supplemented with 10% heating inactivated FBS (Biochrom®-Merck Millipore) and 1% antibiotic/antimitotic mixture (Invitrogen®). Three human glioblastoma (GBM) cell line models, two established and commercially available cell lines (U87MG and GAMG, kind gift from Rui M. Reis) and one primary GBM culture (GLIB) were also used. GBM cells were cultures in DMEM (Biochrom-Merck Millipore), all supplemented with 10% FBS. The Renal cell carcinoma cell lines A498, 786-O, Caki-2 and HK2 were obtained from ATCC. The cancer cell line A498 was cultured in MEM medium (Biochrom®-Merck Millipore), 786-O was cultured in RPMI 1640 medium (Biochrom®-Merck Millipore), Caki-2 was cultured in Mc Coys medium (Biochrom®-Merck Millipore) and HK2 was cultured in RPMI 1640 medium (Biochrom®-Merck Millipore). All the media were supplemented with 10% heat inactivated FBS (Biochrom®-Merck Millipore) and 1% antibiotic/antimitotic mixture (Invitrogen®). All cells were grown in a humidified incubator at 37° C. and 5% CO2. For all assays, DMSO (Dimethyl Sulfoxide, Sigma-Aldrich) controls were used.
as §1, with “After 72 h of incubation, the MTS (Promega) reduction assay was performed according to manufacturer's instructions to indirectly assess the percentage of viable cells through metabolic cell viability. After 1-2 hours of incubation with MTS in a humidified atmosphere at 37° C. and 5% CO2, absorbance was measured at 490 nm. For RCC cell lines, sulforhodamine B assay was used according to manufacturer's instructions. The data was log-transformed and the concentration of each compound that decreased the number of viable cells to 50% (IC50) relative to control was calculated using the GraphPad Prism 6 software.” left out

COc1cccc2c1Oc1nc(-c3ccccc3)[nH]c1C2 [MC350, 5-methoxy-2-phenyl-3,9-dihydrochromeno[2,3-d]imidazoles] was tested, and the “Selectivity Index (vs HK2) Caki-2 Resistant” value (from here on “Selectivity Index”) [1] was 32.28, the IC50 [1] was 0.646 µM and the IC50 [2] was 830 nM.

In the case of COc1cccc2c1Oc1nc(-c3ccc(F)cc3)[nH]c1C2C1c2cccc(OC)c2Oc2nc(-c3ccc(F)cc3)[nH]c21 (centres unmarked) [MC406, 2,2′-bis(4-fluorophenyl)-5,5′-dimethoxy-1,1,9,9′-tetrahydro-9,9′-bichromeno[2,3-]imidazoles], the IC50 [2] is reported as 1160 nM.

COc1cccc2c1Oc1nc(-c3ccccc3F)[nH]c1C2 [MC407, 2-(2-fluorophenyl)-5-methoxy-3,9-dihydrochromeno[2,3-d]imidazoles] showed an IC50 [2] of 1360 nM.

With COc1cccc2c1Oc1nc(-c3ccc(Br)cc3)[nH]c1C2 [MC408, 2-(4-bromophenyl)-5-methoxy-3,9-dihydrochromeno[2,3-d]imidazoles] the “Selectivity Index” value [1] was 123.79, the IC50 [1] was 0.028 µM and the IC50 [2] was 140 nM.

COc1cccc2c1Oc1nc(-c3ccc(F)cc3)[nH]c1C2 [MC409, 2-(4-fluorophenyl)-5-methoxy-3,9-dihydrochromeno[2,3-d]imidazoles] was tested, and the “Selectivity Index” value [1] was 9.56, the IC50 [1] was 0.33 µM and the IC50 [2] was 560 nM.

In the case of COc1cccc2c1Oc1nc(-c3cc(F)cc(F)c3O)[nH]c1C2 [MC410, 2,4-difluoro-6-(5-methoxy-3,9-dihydrochromeno[2,3-d]imidazol-2-yl)phenol], the “Selectivity Index” value [1] is reported as 2.60 and the IC50 [1] is reported as 6.41 µM.

For COc1ccccc1-c1nc2c([nH]1)Cc1cccc(OC)c1O2 [MC411, 5-methoxy-2-(2-methoxyphenyl)-3,9-dihydrochromeno[2,3-]imidazoles], the “Selectivity Index” value [1] was 1.92 and the IC50 [1] was 1.62 µM.

For COc1cccc2c1Oc1nc(-c3ccc(O)cc3)[nH]c1C2 [MC413, 4-(5-methoxy-3,9-dihydrochromeno[2,3-d]imidazol-2-yl)phenol], the “Selectivity Index” value [1] was 29.6, the IC50 [1] was 0.335 µM and the IC50 [2] was 960 nM.

For CCOc1ccc(-c2nc3c([nH]2)Cc2cccc(OC)c2O3)cc1 [MC415, 2-(4-ethoxyphenyl)-5-methoxy-3,9-dihydrochromeno[2,3-d]imidazoles], the “Selectivity Index” value [1] was 64.5, the IC50 [1] was 0.08 µM and the IC50 [2] was 120 nM.

In the case of COc1ccc(-c2nc3c([nH]2)Cc2cccc(OC)c2O3)c(Br)c1O [MC416, 2-bromo-6-methoxy-3-(5-methoxy-3,9-dihydrochromeno[2,3-]imidazol-2-yl)phenol], the “Selectivity Index” value [1] is reported as 1.97 and the IC50 [1] is reported as 1.59 µM.

With COc1cccc2c1Oc1nc(-c3ccc(Br)cc3)[nH]c1C2C1c2cccc(OC)c2Oc2nc(-c3ccc(Br)cc3)[nH]c21 (centres unmarked) [MC421, 2,2′-bis(4-bromophenyl)-5,5′-dimethoxy-1,1,9,9′-tetrahydro-9,9′-bichromeno[2,3-]imidazoles] the “Selectivity Index” value [1] was 123.50, the IC50 [1] was 0.02 µM and the IC50 [2] was 340 nM.

Source: patent US12391701B2, “Chromene-based compounds, methods and uses thereof” (University of Minho, priority 2019, dated 2025)
